This is an account of results in patent US8318954B2, “Cleavable carnitine compound” (Nou Life Sciences, Inc., priority 2006, dated 2012).

Data set [1] deals with C. elegans. Description: Thermal avoidance (TAV) single intensity testing (6% laser intensity). It is filed as in vivo. As to the method: One 24 well microtiter plate was set up and incubated overnight on the shaker at 20° C. Each well on the plate was set up with 600 L3/L4-stage N2 animals in NGM with a 1:20 dilution of concentrated HB101 E. coli (food source) in a volume of 300 μl. Before the animal/HB101 solution was added, test compounds were pipetted into wells. 3 μl each for the DMSO controls and LA dilutions were added to each well (1:100 dilutions). Controls and LA dilutions were done in triplicate (total of 9 wells).
6% Response tests—setup: All 9 wells from the 24 well plate were used for 6% testing and the entire well contents (600 animals) were used for each test. Prior to being placed on the agar plate for TAV testing each sample was processed as described for ‘Dose Responses’.
Dose Responses—general notes on analysis: Analysis similar as described in ‘Dose Responses’. In addition, ‘Response ratios’ as well as ‘A Speed responses’ both give measures of how much individual animals changed speed in response to the stimulus (additional information available upon request).
One 24 well microtiter plate was set up and incubated overnight on the shaker at 20° C. Each well on the plate was set up with 600 L3/L4-stage N2 animals in NGM with a 1:20 dilution of concentrated HB101 E. coli (food source) in a volume of 300 μl. Before the animal/HB101 solution was added, test compounds were pipetted into wells. 6 μl each for the water controls and compound dilutions were added to each well (1:50 dilutions). Controls and compound dilutions were done in triplicate (total of 15 wells).
6% Response tests—setup: All 15 wells from the 24 well plate were used for 6% testing) and the entire well contents (600 animals) were used for each test. Prior to being placed on the agar plate for TAV testing each sample was processed as described for ‘Dose Responses’.
One 24 well microtiter plate was set up and incubated overnight on the shaker at 20° C. Each well on the plate was set up with 600 L3/L4-stage N2 animals in NGM with a 1:20 dilution of concentrated HB101 E. coli (food source) in a volume of 300 μl. Before the animal/HB101 solution was added, test compounds were pipetted into wells. 3 μl each for the DMSO controls and LC dilutions were added to each well (1:100 dilutions). Controls and LC dilutions were done in triplicate (total of 9 wells).

Data set [2] relates to C. elegans. Description: Toxicity testing in C. elegans, 96 well plate, bacterial clearance (OD620). The conditions noted are these: highest concentration tested, 8 mM, L1-stage N2 animals, OD620 up to 44 hours, HCl. It is filed as in vivo. As to the method:
The work plan included a i) characterization of the compounds for toxicity in C. elegans and then, using subtoxic concentrations, a ii) characterization of compound effects on neuronal sensitivity as detected by TAV technology. Toxicity characterization follows a well established standard operating protocol used in previous toxicity-type assays in C. elegans. The initial TAV characterization of compound-mediated effects on C. elegans used a number of compound concentrations and incubation times that were selected by NemaRx as being most likely to detect any TAV-related effects that the compounds may have. […] 0% provides a ‘background’ measure, 6% typically gives intermediate TAV responses (and as such should provide a good starting point to detect compound-mediated increased TAV responses), and 12% usually gives robust responses. No obvious effects were detected for either of the four compounds. While the experimental setup provides a good first pass, the limitation lies in the relatively small number of animals that are assayed at each intensity (30). Subtle effects compound-mediated up-regulation at 6% laser intensity may be missed. • Single Intensity Testing: The two highest non-toxic compound concentrations for each of the four compounds were tested at 6% laser intensity. The number of datapoints collected was between 50-80 LA and >100 for the three other compounds. […] The experiment was carried out in quadruplicate. […] Stock Dilution Setup
Two 96 well microtiter plates set up which were incubated at 20 C (both 96 well plates were identical, i.e. the experiment was done in duplicate). Each well on the plates was set up with 100 L1-stage N2 animals in NGM with a 1:20 dilution of concentrated HB101 E. coli (food source) in a volume of 50 μl. Compounds (see below) were then added to the wells. For water controls and compound stocks/dilutions in water (DH LA, NAC) 1 μl was added to each well (1:50 dilutions). For DMSO controls and compound stocks/dilutions in DMSO (LA) 0.5 μl was added to each well (1:100 dilutions). […]

Data set [3] concerns C. elegans. Description: Thermal avoidance (TAV) 3 step dose response testing. The conditions noted are these: for effects indicating increased sensory sensitivity: 0%, 6%, 12% laser intensity. It is filed as in vivo. From the text:
The present invention includes a series of compounds that may be useful for increasing sensory neuron function in certain human neuropathological conditions. C. elegans contains a number of sensory neurons which are responsible for detecting a variety of external stimuli. One such stimulus (heat) can be detected and quantified in C. elegans by the use of thermal avoidance (TAV) technology available through NemaRx. The goal of this experiment was to provide an initial characterization of the compounds via TAV. Specifically, it was asked whether any of these compounds can lead to an increase in the thermal stimulus-induced behavioral response measured by TAV. N2 strain C. elegans animals were used for this project, which have ‘normal’, i.e. wildtype, sensory neuron function. Four compounds were received by NemaRx for TAV testing. These compounds were:
(§1) One 24 well microtiter plate was set up and incubated overnight on the shaker at 20 C. Each well on the plate was set up with 600 L3/L4-stage N2 animals in NGM with a 1:20 dilution of concentrated HB101 E. coli (food source) in a volume of 300 μl. Before the animal/HB101 solution was added, test compounds were pipetted into wells. For water controls and compound stocks/dilutions in water (DHLA, NAC) 6 μl was added to each well (1:50 dilutions). For DMSO controls and compound stocks/dilutions in DMSO (LA) 3 μl was added to each well (1:100 dilutions). No OD620 measurements were taken but the animals were visually scored after 19 h incubation.
Dose Responses—setup: All of the wells from the 24 well plate were used for dose response testing and the entire well contents (600 animals) were used for each test. Prior to being placed on the agar plate for TAV testing each sample was processed as follows: • sample were transferred to glass tube containing 7 ml PBS • animals were allowed to settle for 5 minutes before most of the supernatant was removed (approx. 0.5 ml remaining in tube) • 7 ml PBS was then added, mixed and animals were allowed to settle for 5 minutes most of the supernatant was then removed • animals were removed and transferred to TAV testing plate (NRx Application pattern A) • plate was allowed to dry for 10 minutes (plate cover removed) and TAV testing was initiated. Per plate settings for the dose response experiments were as follows:
Dose Responses—general notes on analysis: A response of the animals to a thermal stimulus (laser) which is applied to the head region can be detected both by a change in the direction of movement, as well as by a change in speed occurring within the test interval where the stimulus is applied. • direction of movement. […] Animals that show a strong change in the direction of movement, i.e. reversals, are classified as LR5 responders. […] LR5 responders show a thermal intensity-dependent increase in the speed of movement (starting off with less than <prelaser speed at low intensities up to > pre-laser speed at high intensities)
The dose response experiments for the current project were carried out with 0% (background control), 6% and 12% settings of laser intensity. In practice, 6% is on the edge of laser intensity required to detect an increase in the number of LR5 responders. As such, 6% should be a useful intensity-setting to detect compound-induced increased sensitivity in the animals. The 12% setting was chosen because this intensity typically gives a robust increase in the number of LR5 responders.
Total Responder speeds, ‘LR1 Responder speeds’ and ‘LR5 Responder speeds’ are shown as normalized speeds to allow better comparison between samples. For normalization purposes the average pre-laser speed is set at 1.0 and responder speeds are calculated relative to this value.
One 24 well microtiter plate was set up and incubated overnight on the shaker at 20° C. Each well on the plate was set up with 600 L3/L4-stage N2 animals in NGM with a 1:20 dilution of concentrated HB101 E. coli (food source) in a volume of 300 μl. […]

The test system of data set [4] is rats. The conditions noted are these: 10 mg/kg cisplatin s.c. seven days, oral 300 mg/kg acetyl L-carnitine, 300 mg/kg carnitine mixture, 50 mg/kg α-lipoic acid; cited from earlier work.
Data set [5] deals with C. elegans. Nature of the data set: Visual scoring of C. elegans after overnight incubation with compound in 24 well plate. The data set is classed as in vivo. To be noted: DHLA1, 1:500 final concentration in well; 19 h incubation; L3/L4-stage N2 animals. As to the method:
as §1
One 24 well microtiter plate was set up and incubated overnight on the shaker at 20° C. Each well on the plate was set up with 600 L3/L4-stage N2 animals in NGM with a 1:20 dilution of concentrated HB101 E. coli (food source) in a volume of 300 μl. Before the animal/HB101 solution was added, test compounds were pipetted into wells. For DMSO controls and compound stocks/dilutions in DMSO (LC) 3 μl was added to each well (1:100 dilutions). No OD620 measurements were taken but the animals were visually scored after 19 h incubation).
One 24 well microtiter plate was set up and incubated overnight on the shaker at 20° C. Each well on the plate was set up with 600 L3/L4-stage N2 animals in NGM with a 1:20 dilution of concentrated HB101 E. coli (food source) in a volume of 300 μl. Before the animal/HB101 solution was added, test compounds were pipetted into wells. For DMSO controls and compound stocks/dilutions in DMSO (LC) 3 μl was added to each well (1:100 dilutions). No OD620 measurements were taken but the animals were visually scored after 22 h incubation).

Data set [6] concerns mice and rats. The conditions noted are these: individually or in combination at high doses, mice and rats; cited from earlier work.
In data set [7] the test system is rats. To be noted: cited from earlier work.
Data set [8] has as its system male patients with intermediate claudication. To be noted: cited from earlier work; for TcPCO: after treatment.
In data set [9] the test system is patients with chronic critical limb ischaemia. The conditions noted are these: 1.2 g/day i.v. infusion for two weeks with calcium heparin 25,000 U/day s.c.; over baseline; cited from earlier work.
[10] abbreviates: after 600 mg i.v. infusion, compared to pre-treatment values.

Like-named read-outs stand apart in the source and are kept apart here.

For the compound `CC(=O)O[C@H](CC(=O)O)C[N+](C)(C)C.[Cl-]` [NAC, N-Acetyl carnitine HCl], the figures for the “effects indicating increased sensory sensitivity” value in data set [1] (8 mM or 4 mM) and in data set [3] (even at highest concentration of 8 mM) were “No effects detected” and “No obvious effects detected”, respectively. In addition, the toxicity entry in data set [2] is on record as “No toxic effects”; in [2] (listed as N-Acetyl carnitine), “no toxicity observed”.
As to `N.N.[Cl][Pt][Cl]` [Cisplatin], the Equilibrium time in [4] is 8.4 ± 0.8 s.
`O=C(O)CCCC[C@@H](S)CCS` (racemic) [DHLA, Dihydrolipoic acid]: in [5], the “visual scoring of well clearance” value is on record as “some bacteria remaining”. The “effect such as increased percentage of LR5 responders” value in [1] (1:1,000 or 1:2,500) was “No obvious effect detected”. For the same compound, the “response of animals that show a LR5 response ('Responder ratios', 'A Speed responses')” value in [1] (1:2,500 concentration) is listed as “slightly stronger response”. Further, the “effects indicating increased sensory sensitivity” value in data set [3] (even at highest concentration of 1:500) is reported as “No obvious effects detected”. Also, the “percentage of LR5 responders at 6%” value in [3] (second highest concentration (DHLA2)) is listed as “relatively high”.
For `C[N+](C)(C)CC(O)CC(=O)[O-]` (centres unmarked) [Carnitine], the tolerability and toxicity entry in [6] was “good tolerability and limited toxicity”. Moreover, the “area of skin flap necrosis” value is given as 12.55 cm^2 in data set [7] (group 1, 50 mg/kg/day for 1 week) and 9.23 cm^2 in data set [7] (group 2, 100 mg/kg/day for 1 week).
In the case of `CCC(=O)O[C@H](CC(=O)[O-])C[N+](C)(C)C` [L-Propionyl Carnitine], in data set [8] (setting [10]), the Perfusion units result is listed as “did not change significantly” and the TcPO result is recorded as “did not change significantly”. In addition, the “resting TcPCO” value in data set [8] (after 600 mg i.v. infusion) was “no significant effects”. In addition, the TcPCO in [8] (at hypoxia point) is listed as 90.2 mm Hg. In [8] (at rest, after 600 mg i.v. infusion), the “Mean laser-Doppler power spectrum” value is on record as 0.89 units. For the same compound, the “Mean laser-Doppler power spectrum” value in data set [8] (during reperfusion, after 600 mg i.v. infusion) was 2.24 units. Further, the TcPCO in data set [8] (during reperfusion) is given as 103.5 mm Hg. Besides, in [9], the “decrease in mean pain score” value was 83%, the “decrease in mean ulcer size (diameter)” value was 48% and the “increase in mean pain free walking distance (PWD)” value was 78%.
